Test results published in patent US9012626B2, “Rebaudioside a composition and method for purifying rebaudioside a” (The Coca-Cola Company, priority 2006, dated 2015).

Experiment: Rate of dissolution in H2O at 25° C.
Assay type: physicochemical

SMILES | Rate of dissolution in H2O at 25° C. (grade in words) | Rate of dissolution in H2O at 25° C. (amount dissolved) (in 60 minutes) | Rate of dissolution in H2O at 25° C. (amount dissolved) (in 5 minutes) | Rate of dissolution compared to the polymorphic forms (Forms 1, 2, or 3)
C=C1C[C@@]23CC[C@H]4[C@@](C)(CCC[C@@]4(C)C(=O)O[C@@H]4O[C@H](CO)[C@@H](O)[C@H](O)[C@H]4O)[C@@H]2CC[C@]1(O[C@@H]1O[C@H](CO)[C@@H](O)[C@H](O[C@@H]2O[C@H](CO)[C@@H](O)[C@H](O)[C@H]2O)[C@H]1O[C@@H]1O[C@H](CO)[C@@H](O)[C@H](O)[C@H]1O)C3 [Form 1, rebaudioside A] | Very low | (<0.2% in 60 |  | 
C=C1C[C@@]23CC[C@H]4[C@@](C)(CCC[C@@]4(C)C(=O)O[C@@H]4O[C@H](CO)[C@@H](O)[C@H](O)[C@H]4O)[C@@H]2CC[C@]1(O[C@@H]1O[C@H](CO)[C@@H](O)[C@H](O[C@@H]2O[C@H](CO)[C@@H](O)[C@H](O)[C@H]2O)[C@H]1O[C@@H]1O[C@H](CO)[C@@H](O)[C@H](O)[C@H]1O)C3 [Form 2, rebaudioside A] | Intermediate |  | (<30% in 5 | 
C=C1C[C@@]23CC[C@H]4[C@@](C)(CCC[C@@]4(C)C(=O)O[C@@H]4O[C@H](CO)[C@@H](O)[C@H](O)[C@H]4O)[C@@H]2CC[C@]1(O[C@@H]1O[C@H](CO)[C@@H](O)[C@H](O[C@@H]2O[C@H](CO)[C@@H](O)[C@H](O)[C@H]2O)[C@H]1O[C@@H]1O[C@H](CO)[C@@H](O)[C@H](O)[C@H]1O)C3 [Form 3, rebaudioside A] | High |  | (>30% in 5 | 
C=C1C[C@@]23CC[C@H]4[C@@](C)(CCC[C@@]4(C)C(=O)O[C@@H]4O[C@H](CO)[C@@H](O)[C@H](O)[C@H]4O)[C@@H]2CC[C@]1(O[C@@H]1O[C@H](CO)[C@@H](O)[C@H](O[C@@H]2O[C@H](CO)[C@@H](O)[C@H](O)[C@H]2O)[C@H]1O[C@@H]1O[C@H](CO)[C@@H](O)[C@H](O)[C@H]1O)C3 [Form 4, rebaudioside A] | High |  | (>35% in 5 | improved rate of dissolution
